The text below walks through data of BindingDB's records for patent US12187709 (Genentech, 2025).

For test [1], the target named is T1, E3 ubiquitin-protein ligase CBL (Homo sapiens, UniProt P22681). The experiment in a line: Cbl-b and C-Cbl LCK Ub TR-FRET Assay. Here is the method: 6 μL of detection mixture was added to all wells and briefly centrifuged before incubating for 20 min at room temperature. […] IC50 was generated using no LCK as the low control and DMSO as the high control.
Background: TR-FRET usually uses a lanthanide donor and a delayed reading to cut background.

Test [2] deals with T1, E3 ubiquitin-protein ligase CBL. The experiment in a line: Multi-Point Chaser SPR Assay Variation. The protocol:
(§1) Table 4: Chaser assay utilize a single cycle kinetics SPR experiment with a contact time of 120 seconds, a flow rate of 50 μl/min and a dissociation time of 450 seconds. […] The kd is measured independently by determining the percentage unoccupied compound binding site over time by measuring the binding of a chaser compound measured by SPR.Chaser binding was measured by a multicycle kinetics SPR experiment using a contact time of 20 seconds, a flow rate of 30 μl/min, and a dissociation time of 120 seconds. […] The % compound bound at a given time was determined by comparison to a single injection of chaser preceding the single cycle kinetics titration defined below.% Compound Bound=(1−(RUT/RUT0))*100

The target in test [3] is E3 ubiquitin-protein ligase CBL-B (Homo sapiens, UniProt Q13191). The experiment in a line: Multi-Point Chaser SPR Assay Variation. The protocol:
as §1

E3 ubiquitin-protein ligase CBL-B, sequence (Q13191 whole entry): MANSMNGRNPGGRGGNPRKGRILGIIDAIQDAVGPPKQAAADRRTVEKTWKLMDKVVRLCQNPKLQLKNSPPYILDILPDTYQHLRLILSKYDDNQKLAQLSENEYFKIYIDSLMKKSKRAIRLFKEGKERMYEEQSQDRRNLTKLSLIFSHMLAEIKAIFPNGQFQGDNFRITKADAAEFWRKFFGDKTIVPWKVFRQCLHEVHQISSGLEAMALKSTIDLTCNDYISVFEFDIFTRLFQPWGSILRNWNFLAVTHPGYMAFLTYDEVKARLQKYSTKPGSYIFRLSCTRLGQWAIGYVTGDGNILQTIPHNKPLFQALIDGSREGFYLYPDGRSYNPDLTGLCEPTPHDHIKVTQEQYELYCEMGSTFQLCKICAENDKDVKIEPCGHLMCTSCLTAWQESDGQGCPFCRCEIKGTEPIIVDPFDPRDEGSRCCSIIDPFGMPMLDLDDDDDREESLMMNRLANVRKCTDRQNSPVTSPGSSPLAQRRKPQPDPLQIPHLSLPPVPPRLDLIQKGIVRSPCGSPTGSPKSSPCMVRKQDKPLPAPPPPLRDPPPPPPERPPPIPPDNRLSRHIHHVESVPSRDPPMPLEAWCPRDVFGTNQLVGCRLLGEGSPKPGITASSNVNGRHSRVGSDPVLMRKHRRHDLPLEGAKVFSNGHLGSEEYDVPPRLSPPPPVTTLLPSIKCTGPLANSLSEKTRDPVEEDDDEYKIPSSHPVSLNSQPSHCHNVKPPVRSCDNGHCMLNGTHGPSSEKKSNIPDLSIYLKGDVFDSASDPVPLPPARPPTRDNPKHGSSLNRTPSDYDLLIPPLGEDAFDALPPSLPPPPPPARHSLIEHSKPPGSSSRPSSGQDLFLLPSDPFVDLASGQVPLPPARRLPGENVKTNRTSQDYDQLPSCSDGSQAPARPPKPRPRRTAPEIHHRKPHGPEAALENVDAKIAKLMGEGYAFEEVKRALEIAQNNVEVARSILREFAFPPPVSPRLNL

For the molecule `CO[C@@](c1cccc(N2Cc3c(cc(CNC4(C)CCC4)cc3C(F)(F)F)C2=O)c1)(c1nncn1C)C1CCC1` (single isomer, unassigned) [US12187709, Compound 118], the IC50 in test [1] was at least 20000 nM.
The molecule `Cn1cnnc1[C@]1(c2cc(NC3CCCCC3)nc(N3Cc4c(cc(CNC5(C)CCC5)cc4C(F)(F)F)C3=O)c2)C[C@@H](C)C1` [US12187709, Compound 50] yielded an IC50 in test [1] of 53 nM. Also, the Kd turned out to be 20 nM in test [2] and 6.5 nM in test [3].
`Cn1cnnc1[C@]1(c2cc(NC3CCCCC3)nc(N3Cc4c(cc(CNC5(C)CCC5)cc4C(F)(F)F)C3=O)c2)C[C@H](C)C1` [US12187709, Compound 51]: the half-inhibitory concentration (IC50) in test [1] was found to be 61 nM. This lies in the double-digit nanomolar range.
In test [1], `Cn1cnnc1[C@]1(c2cc(NC3CCCC3)nc(N3Cc4c(cc(CNC5(C)CCC5)cc4C(F)(F)F)C3=O)c2)C[C@@H](C)C1` [US12187709, Compound 52] gave an IC50 of 9.4 nM. Moreover, the figures for the Kd in test [2] and in test [3] were 11 nM and 0.95 nM, respectively.
On the same counts, the results for `Cn1cnnc1[C@]1(c2cc(NC3CCCC3)nc(N3Cc4c(cc(CNC5(C)CCC5)cc4C(F)(F)F)C3=O)c2)C[C@H](C)C1` [US12187709, Compound 53] are 6.3 nM, 6.5 nM and 0.7 nM.
On the same counts, the results for `Cn1cnnc1[C@]1(c2cc(OC3CCCC3)nc(N3Cc4c(cc(CNC5(C)CCC5)cc4C(F)(F)F)C3=O)c2)C[C@H](C)C1` [US12187709, Compound 54] are 115 nM, 15 nM and 1.3 nM.
`Cn1cnnc1[C@]1(c2cc(OC3CCCC3)nc(N3Cc4c(cc(CNC5(C)CCC5)cc4C(F)(F)F)C3=O)c2)C[C@@H](C)C1` [US12187709, Compound 55] yielded an IC50 in test [1] of 9.4 nM.
On the same count and under the same terms, the same measure for `CC(=O)N1CC(c2cccc(N3Cc4c(cc(CNC5(C)CCC5)cc4C(F)(F)F)C3=O)c2)(c2nncn2C)C1` [US12187709, Compound 112]: at least 20000 nM.

For orientation: IC50 means the point on the concentration scale where inhibition reaches its midpoint. Read a low IC50 as greater potency in that assay. As a reminder, the Kd is a measure of binding affinity in units of concentration. Lower therefore signals higher affinity.
